Test results published in publication PMC4448990 (Pharmacology Research & Perspectives, 2015).
“And” between values parts separate entries of the source, which are not always exact repeats. Identical values can stand only once. Like-named read-outs stand apart in the source and are kept apart here.

Legend:
Sigma 1 = assay: in vitro selectivity profile; format: binding; conditions: eslicarbazepine 400 μmol/L
[1] = target: Protease, caspase, CASP-3 (h) (Homo sapiens, UniProt P42574); assay: in vitro selectivity profile; format: biochemical
Protease, caspase, CASP-3 (h), sequence (P42574 29-175 limits assumed): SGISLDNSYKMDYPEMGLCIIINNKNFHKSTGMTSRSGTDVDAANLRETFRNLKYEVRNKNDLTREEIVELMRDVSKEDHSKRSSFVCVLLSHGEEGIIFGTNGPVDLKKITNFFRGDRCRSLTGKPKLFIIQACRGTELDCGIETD
Protease, caspase, CASP-3 (h), sequence (P42574 176-277 limits assumed): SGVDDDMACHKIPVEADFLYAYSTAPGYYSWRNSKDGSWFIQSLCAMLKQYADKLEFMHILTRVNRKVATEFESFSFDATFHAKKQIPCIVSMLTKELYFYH

[2] = system: transient Na+ current (INaT); conditions: ref Döser et al. [2013b], [2015]; cited from earlier work
[3] = target: human α5β2γ2 GABAA receptors (Homo sapiens, UniProt P18507+P31644+P47870); assay: submaximal GABA currents in Ltk cells; format: cell-based
human α5β2γ2 GABAA receptors, sequence (P31644 32-462): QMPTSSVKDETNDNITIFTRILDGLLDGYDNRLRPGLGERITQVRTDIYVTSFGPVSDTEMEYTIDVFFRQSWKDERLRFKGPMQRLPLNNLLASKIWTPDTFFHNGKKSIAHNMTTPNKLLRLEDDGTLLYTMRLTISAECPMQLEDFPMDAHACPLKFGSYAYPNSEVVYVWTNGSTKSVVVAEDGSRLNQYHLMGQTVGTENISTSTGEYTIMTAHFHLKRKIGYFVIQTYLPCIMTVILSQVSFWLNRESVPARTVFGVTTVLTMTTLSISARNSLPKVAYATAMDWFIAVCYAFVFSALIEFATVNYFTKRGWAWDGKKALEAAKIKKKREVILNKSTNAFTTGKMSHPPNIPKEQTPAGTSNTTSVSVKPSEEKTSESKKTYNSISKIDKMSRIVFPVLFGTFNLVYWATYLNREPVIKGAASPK
human α5β2γ2 GABAA receptors, sequence (P47870 25-512 limits assumed): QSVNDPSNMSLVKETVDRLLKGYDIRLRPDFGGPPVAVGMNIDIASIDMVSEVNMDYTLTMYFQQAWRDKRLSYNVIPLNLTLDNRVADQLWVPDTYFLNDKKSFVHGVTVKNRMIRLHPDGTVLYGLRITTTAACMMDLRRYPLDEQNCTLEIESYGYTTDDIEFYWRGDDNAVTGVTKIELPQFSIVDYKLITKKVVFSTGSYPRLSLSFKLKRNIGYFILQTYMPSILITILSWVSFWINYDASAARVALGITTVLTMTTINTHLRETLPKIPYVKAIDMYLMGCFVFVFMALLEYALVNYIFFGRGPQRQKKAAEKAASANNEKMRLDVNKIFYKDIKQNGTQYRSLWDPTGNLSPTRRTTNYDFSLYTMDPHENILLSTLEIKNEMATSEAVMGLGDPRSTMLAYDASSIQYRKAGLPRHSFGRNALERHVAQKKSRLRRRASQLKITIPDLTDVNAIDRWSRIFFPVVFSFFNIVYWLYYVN
human α5β2γ2 GABAA receptors, sequence (P18507 40-475): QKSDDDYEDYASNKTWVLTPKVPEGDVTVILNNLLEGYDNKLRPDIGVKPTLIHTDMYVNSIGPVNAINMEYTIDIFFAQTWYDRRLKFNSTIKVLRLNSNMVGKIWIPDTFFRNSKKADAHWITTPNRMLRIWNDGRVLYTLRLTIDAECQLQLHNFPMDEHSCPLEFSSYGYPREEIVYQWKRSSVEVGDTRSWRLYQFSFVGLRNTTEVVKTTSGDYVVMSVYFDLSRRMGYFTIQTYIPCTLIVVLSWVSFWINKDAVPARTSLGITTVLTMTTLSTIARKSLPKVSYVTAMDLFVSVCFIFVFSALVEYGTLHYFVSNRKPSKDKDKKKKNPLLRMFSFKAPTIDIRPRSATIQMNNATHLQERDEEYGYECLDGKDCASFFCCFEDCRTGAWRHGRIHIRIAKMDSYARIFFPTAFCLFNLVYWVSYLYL

Dopamine, D3 = assay: in vitro selectivity profile; format: binding; conditions: eslicarbazepine 400 μmol/L
[4] = target: Kinase, protein, PKCz (h) (Homo sapiens, UniProt Q05513); assay: in vitro selectivity profile; format: biochemical
Serotonin, 5HT4 = assay: in vitro selectivity profile; format: binding; conditions: eslicarbazepine 400 μmol/L
[5] = system: Glutamate, NMDA, phencyclidine site; assay: in vitro selectivity profile; format: binding; conditions: eslicarbazepine 400 μmol/L
[6] = target: Protease, caspase, CASP-10 (h) (Homo sapiens, UniProt Q92851); assay: in vitro selectivity profile; format: biochemical
Protease, caspase, CASP-10 (h), sequence (Q92851 220-415 limits assumed): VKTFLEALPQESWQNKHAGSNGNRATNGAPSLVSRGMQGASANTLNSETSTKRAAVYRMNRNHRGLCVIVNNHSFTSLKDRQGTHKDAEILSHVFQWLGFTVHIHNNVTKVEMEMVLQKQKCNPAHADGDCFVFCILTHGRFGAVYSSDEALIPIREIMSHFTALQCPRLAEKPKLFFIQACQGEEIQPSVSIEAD
Protease, caspase, CASP-10 (h), sequence (Q92851 416-521 limits assumed): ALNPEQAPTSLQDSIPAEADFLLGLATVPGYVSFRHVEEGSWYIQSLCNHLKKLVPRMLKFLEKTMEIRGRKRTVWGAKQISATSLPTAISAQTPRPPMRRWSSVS

Serotonin, 5HT1D (h) = Serotonin, 5HT1D (h) (Homo sapiens, UniProt P28221); assay: in vitro selectivity profile; format: binding
Purinergic, P2Y = assay: in vitro selectivity profile; format: binding; conditions: eslicarbazepine 400 μmol/L
GABA-B = assay: in vitro selectivity profile; format: binding; conditions: eslicarbazepine 400 μmol/L
Serotonin, 5HT7 (h) = Serotonin, 5HT7 (h) (Homo sapiens, UniProt P34969); assay: in vitro selectivity profile; format: binding
Angiotensin II, AT2 = assay: in vitro selectivity profile; format: binding; conditions: eslicarbazepine 400 μmol/L
Neurokinin, NK1 = assay: in vitro selectivity profile; format: binding; conditions: eslicarbazepine 400 μmol/L
[7] = system: Glycine, strychnine-sensitive; assay: in vitro selectivity profile; format: binding; conditions: eslicarbazepine 400 μmol/L
[8] = cited from earlier work
[9] = target: Kinase, protein, ROCK2 (h) (Homo sapiens, UniProt O75116); assay: in vitro selectivity profile; format: biochemical
[10] = target: human α1β2γ2 GABAA receptors (Homo sapiens, UniProt P14867+P18507+P47870); assay: submaximal GABA currents in Ltk cells; format: cell-based
human α1β2γ2 GABAA receptors, sequence (P14867 28-456): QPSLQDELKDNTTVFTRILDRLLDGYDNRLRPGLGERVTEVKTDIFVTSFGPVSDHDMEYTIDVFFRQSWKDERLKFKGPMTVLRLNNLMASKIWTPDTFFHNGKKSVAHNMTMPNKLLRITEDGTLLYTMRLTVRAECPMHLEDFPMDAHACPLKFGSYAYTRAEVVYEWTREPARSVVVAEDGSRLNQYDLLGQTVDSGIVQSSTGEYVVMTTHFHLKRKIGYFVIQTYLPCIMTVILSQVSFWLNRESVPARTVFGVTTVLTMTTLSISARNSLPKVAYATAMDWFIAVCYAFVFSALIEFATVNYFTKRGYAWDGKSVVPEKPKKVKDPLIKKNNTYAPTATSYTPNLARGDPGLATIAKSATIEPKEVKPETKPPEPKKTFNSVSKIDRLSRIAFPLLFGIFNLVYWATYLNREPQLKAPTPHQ
human α1β2γ2 GABAA receptors, sequence (P47870 25-512 limits assumed): as the sequence (P47870 25-512 limits assumed) above
human α1β2γ2 GABAA receptors, sequence (P18507 40-475): as the sequence (P18507 40-475) above

Galanin, nonselective = assay: in vitro selectivity profile; format: binding; conditions: eslicarbazepine 400 μmol/L
[11] = target: Anhydrase, carbonic, isozyme II (h) (Homo sapiens, UniProt P00918); assay: in vitro selectivity profile; format: biochemical
[12] = eslicarbazepine; ref Bialer and Soares-da-Silva [2012]; cited from earlier work
Glutamate, MK-801 site = assay: in vitro selectivity profile; format: binding; conditions: eslicarbazepine 400 μmol/L
Dopamine, D1 (h) = Dopamine, D1 (h) (Homo sapiens, UniProt P21728); assay: in vitro selectivity profile; format: binding
Dopamine, D1 (h), sequence (P21728 whole entry): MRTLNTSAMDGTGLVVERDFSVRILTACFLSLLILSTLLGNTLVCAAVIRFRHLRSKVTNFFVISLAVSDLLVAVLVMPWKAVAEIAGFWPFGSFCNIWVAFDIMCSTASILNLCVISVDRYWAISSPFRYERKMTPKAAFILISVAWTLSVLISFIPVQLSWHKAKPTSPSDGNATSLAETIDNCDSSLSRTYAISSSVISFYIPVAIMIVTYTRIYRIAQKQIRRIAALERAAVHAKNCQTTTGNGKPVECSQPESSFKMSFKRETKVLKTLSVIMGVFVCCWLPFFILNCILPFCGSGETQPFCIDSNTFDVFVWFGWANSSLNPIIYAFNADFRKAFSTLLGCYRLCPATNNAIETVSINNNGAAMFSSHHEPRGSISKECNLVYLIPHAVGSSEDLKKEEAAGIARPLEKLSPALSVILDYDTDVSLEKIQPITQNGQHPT

Adrenergic, alpha2A (h) = Adrenergic, alpha2A (h) (Homo sapiens, UniProt P08913); assay: in vitro selectivity profile; format: binding
Sodium, site 2 = assay: in vitro selectivity profile; format: binding; conditions: eslicarbazepine 400 μmol/L
[13] = target: Kinase, protein, PKCb2 (h) (Homo sapiens, UniProt P05771); assay: in vitro selectivity profile; format: biochemical
Kinase, protein, PKCb2 (h), sequence (P05771 1-673 isoform P05771-2): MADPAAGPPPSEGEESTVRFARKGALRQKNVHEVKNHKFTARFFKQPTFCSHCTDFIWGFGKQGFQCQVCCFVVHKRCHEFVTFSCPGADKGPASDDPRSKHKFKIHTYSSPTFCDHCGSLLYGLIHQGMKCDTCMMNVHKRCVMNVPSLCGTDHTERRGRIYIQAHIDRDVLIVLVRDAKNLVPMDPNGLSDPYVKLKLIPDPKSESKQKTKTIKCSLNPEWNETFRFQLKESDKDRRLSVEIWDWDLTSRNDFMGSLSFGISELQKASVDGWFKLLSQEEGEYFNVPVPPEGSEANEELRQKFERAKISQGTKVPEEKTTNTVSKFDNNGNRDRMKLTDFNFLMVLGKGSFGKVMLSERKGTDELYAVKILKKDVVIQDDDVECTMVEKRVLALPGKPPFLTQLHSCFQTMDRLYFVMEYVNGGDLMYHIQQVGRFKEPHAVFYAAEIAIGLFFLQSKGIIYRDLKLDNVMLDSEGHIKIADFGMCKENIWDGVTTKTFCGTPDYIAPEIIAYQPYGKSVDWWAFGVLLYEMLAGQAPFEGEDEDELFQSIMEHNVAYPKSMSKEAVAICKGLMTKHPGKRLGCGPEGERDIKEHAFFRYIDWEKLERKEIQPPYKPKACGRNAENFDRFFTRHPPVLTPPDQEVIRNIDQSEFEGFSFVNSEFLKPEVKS

Oxidase, MAO-B, central = assay: in vitro selectivity profile; format: biochemical; conditions: eslicarbazepine 400 μmol/L
[14] = target: hKv7.2 potassium channels (Homo sapiens, UniProt O43526); assay: whole-cell patch clamp, hKv7.2 in CHO cells; format: cell-based; conditions: depolarizing pulse +20 mV from holding potential −80 mV
Glutamate, mGluR1 = assay: in vitro selectivity profile; format: binding; conditions: eslicarbazepine 400 μmol/L
[15] = target: Protease, caspase, CASP-2 (h) (Homo sapiens, UniProt P42575); assay: in vitro selectivity profile; format: biochemical
hCav2.1 calcium channels = hCav2.1 calcium channels (Homo sapiens, UniProt O00555); assay: whole-cell patch clamp, hCav2.1 in CHO cells; format: cell-based; conditions: IC50, hCav2.1 calcium peak currents, 0.3–1000 μmol/L, holding potential −80 mV
[16] = system: sodium channels endogenously expressed in N1E-115 mouse neuroblastoma cells; conditions: 250 μmol/L; ref Hebeisen et al. [2014]; cited from earlier work
Muscarinic, M5 (h) = Muscarinic, M5 (h) (Homo sapiens, UniProt P08912); assay: in vitro selectivity profile; format: binding
Muscarinic, M5 (h), sequence (P08912 whole entry): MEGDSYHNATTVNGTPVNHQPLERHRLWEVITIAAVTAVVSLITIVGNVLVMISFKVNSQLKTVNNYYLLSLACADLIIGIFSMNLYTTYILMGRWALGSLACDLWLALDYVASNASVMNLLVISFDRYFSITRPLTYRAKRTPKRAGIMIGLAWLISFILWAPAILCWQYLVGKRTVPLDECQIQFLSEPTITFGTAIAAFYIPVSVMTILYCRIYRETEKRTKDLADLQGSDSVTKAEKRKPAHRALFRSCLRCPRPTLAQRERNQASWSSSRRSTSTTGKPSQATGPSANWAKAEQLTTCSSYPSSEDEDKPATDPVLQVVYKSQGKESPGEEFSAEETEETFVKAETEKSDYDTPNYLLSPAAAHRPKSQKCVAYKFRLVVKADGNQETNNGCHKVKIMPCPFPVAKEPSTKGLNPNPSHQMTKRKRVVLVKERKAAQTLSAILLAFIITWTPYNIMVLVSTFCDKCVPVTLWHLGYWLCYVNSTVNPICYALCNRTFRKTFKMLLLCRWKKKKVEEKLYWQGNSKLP

[17] = system: Corticotropin-releasing factor, nonselective; assay: in vitro selectivity profile; format: binding; conditions: eslicarbazepine 400 μmol/L
Serotonin, 5HT2C = assay: in vitro selectivity profile; format: binding; conditions: eslicarbazepine 400 μmol/L
Sigma 2 = assay: in vitro selectivity profile; format: binding; conditions: eslicarbazepine 400 μmol/L
Muscarinic, M4 (h) = Muscarinic, M4 (h) (Homo sapiens, UniProt P08173); assay: in vitro selectivity profile; format: binding
[18] = target: human α3β2γ2 GABAA receptors (Homo sapiens, UniProt P18507+P34903+P47870); assay: submaximal GABA currents in Ltk cells; format: cell-based
human α3β2γ2 GABAA receptors, sequence (P34903 29-492): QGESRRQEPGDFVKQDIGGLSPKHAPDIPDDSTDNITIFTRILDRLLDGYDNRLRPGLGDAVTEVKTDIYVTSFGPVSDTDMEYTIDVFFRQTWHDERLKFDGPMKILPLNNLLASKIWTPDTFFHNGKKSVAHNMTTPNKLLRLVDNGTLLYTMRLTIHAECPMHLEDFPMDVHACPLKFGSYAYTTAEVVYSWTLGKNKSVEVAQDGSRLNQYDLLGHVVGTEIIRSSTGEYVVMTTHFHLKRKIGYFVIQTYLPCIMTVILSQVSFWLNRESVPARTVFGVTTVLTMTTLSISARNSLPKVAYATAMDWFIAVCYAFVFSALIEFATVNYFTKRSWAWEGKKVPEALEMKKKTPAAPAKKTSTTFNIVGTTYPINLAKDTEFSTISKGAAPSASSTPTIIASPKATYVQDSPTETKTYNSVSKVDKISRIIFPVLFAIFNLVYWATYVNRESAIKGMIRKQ
human α3β2γ2 GABAA receptors, sequence (P47870 25-512 limits assumed): as the sequence (P47870 25-512 limits assumed) above
human α3β2γ2 GABAA receptors, sequence (P18507 40-475): as the sequence (P18507 40-475) above

[19] = Amygdala kindling, ESL 200 mg/kg i.p., 15 min, ref Soerensen et al. ([2011])
[20] = Amygdala kindling, ESL 300 mg/kg i.p., 15 min, ref Soerensen et al. ([2011])
[21] = Corneal kindling, ESL 100 mg/kg i.p., 60 min, ref Pekcec et al. ([2011])
[22] = MES test, ESL 50 mg/kg p.o., 60 min, ref Pires et al. ([2011])

SMILES: NC(=O)N1c2ccccc2C[C@H](O)c2ccccc21 [eslicarbazepine]
- % inhibition (Sigma 1): 28.43%
- inhibition at 400 µM [1]: 0%
- inhibition of firing of DGCs, control versus pilocarpine-treated rats [2]: equally effective in inhibiting firing of DGCs in control versus pilocarpine-treated rats
- GABA inward current stimulation, α5β2γ2, Mean ± SEM ([3]; 50 μmol/L): 95.2 ± 2.2
- GABA inward current stimulation, α5β2γ2, Mean ± SEM ([3]; 100 μmol/L): 93.9 ± 0.6
- GABA inward current stimulation, α5β2γ2, Mean ± SEM ([3]; 250 μmol/L): 93.5 ± 1.8
- GABA inward current stimulation, α5β2γ2, Mean ± SEM ([3]; 500 μmol/L): 89.7 ± 3.4
- effect on submaximal α5β2γ2 GABA currents ([3]; 50–500 μmol/L): did not significantly change submaximal GABA currents
- % inhibition (Dopamine, D3): 0.0%
- inhibition at 400 µM [4]: 1.48%
- % inhibition (Serotonin, 5HT4): 7.38%
- % inhibition [5]: 0.0%
- inhibition at 400 µM [6]: 0%
- inhibition at 400 µM (Serotonin, 5HT1D (h)): 16.4%
- % inhibition (Purinergic, P2Y): 0.0%
- % inhibition (GABA-B): 11.72%
- inhibition at 400 µM (Serotonin, 5HT7 (h)): 0%
- % inhibition (Angiotensin II, AT2): 11.32%
- % inhibition (Neurokinin, NK1): 12.58%
- % inhibition [7]: 25.95%
- Brain (whole volume) Eslicarbazepine [8, 19]: 37.5 nmol/g
- Plasma eslicarbazepine [8, 19]: 236.2 µmol/L
- Brain (whole volume) Eslicarbazepine [8, 20]: 58.7 nmol/g
- Plasma eslicarbazepine [8, 20]: 282.8 µmol/L
- Brain (whole volume) Eslicarbazepine [8, 21]: 67.7 nmol/g
- Plasma eslicarbazepine [8, 21]: 168.1 µmol/L
- Brain (whole volume) Eslicarbazepine [8, 22]: 22 nmol/g and 22.0 nmol/g
- Plasma eslicarbazepine [8, 22]: 32 µmol/L and 31.5 µmol/L
- inhibition at 400 µM [9]: 8.54%
- GABA inward current stimulation, α1β2γ2, Mean ± SEM ([10]; 50 μmol/L): 103.3 ± 2.0
- GABA inward current stimulation, α1β2γ2, Mean ± SEM ([10]; 100 μmol/L): 95.9 ± 1.0
- GABA inward current stimulation, α1β2γ2, Mean ± SEM ([10]; 250 μmol/L): 97.8 ± 1.1
- GABA inward current stimulation, α1β2γ2, Mean ± SEM ([10]; 500 μmol/L): 99.4 ± 0.8
- effect on submaximal α1β2γ2 GABA currents ([10]; 50–500 μmol/L): did not significantly change submaximal GABA currents
- % inhibition (Galanin, nonselective): 6.11%
- inhibition at 400 µM [11]: 5.93%
- binding to nonspecific proteins (protein binding) [12]: ~30%
- % inhibition (Glutamate, MK-801 site): 15.45%
- inhibition at 400 µM (Dopamine, D1 (h)): 6.85%
- inhibition at 400 µM (Adrenergic, alpha2A (h)): 15.6%
- % inhibition (Sodium, site 2): 34.46%
- inhibition at 400 µM [13]: 0%
- % inhibition (Oxidase, MAO-B, central): 0.95%
- IC50, KV7.2 outward currents [14]: no inhibitory effect
- % inhibition (Glutamate, mGluR1): 1.82%
- inhibition at 400 µM [15]: 0%
- IC50 (hCav2.1 calcium channels): 7.84 mM
- recovery of fast inactivated channels [16]: recovered similar to control conditions
- inhibition at 400 µM (Muscarinic, M5 (h)): 16%
- % inhibition [17]: 26.95%
- % inhibition (Serotonin, 5HT2C): 3.67%
- % inhibition (Sigma 2): 6.11%
- inhibition at 400 µM (Muscarinic, M4 (h)): 6.08%
- GABA inward current stimulation, α3β2γ2, Mean ± SEM ([18]; 50 μmol/L): 95.6 ± 4.8
- GABA inward current stimulation, α3β2γ2, Mean ± SEM ([18]; 100 μmol/L): 97.9 ± 4.2
- GABA inward current stimulation, α3β2γ2, Mean ± SEM ([18]; 250 μmol/L): 96.4 ± 2.2
- GABA inward current stimulation, α3β2γ2, Mean ± SEM ([18]; 500 μmol/L): 91.6 ± 5.6
- effect on submaximal α3β2γ2 GABA currents ([18]; 50–500 μmol/L): did not significantly change submaximal GABA currents
